According to ChEMBL document CHEMBL5696441 (Nat Chem Biol, 2011):

Columns and labels:
[1] = molecular target: Cyclin-dependent kinase 19 (Homo sapiens) (UniProt Q9BWU1); test: Inhibition of CDK11 (unknown origin) assessed as remaining activity at 1 uM by Kinome scan method relative to control
[2] = molecular target: Cyclin-dependent kinase 5 (Homo sapiens) (UniProt Q00535); test: Inhibition of CDK5 (unknown origin) assessed as remaining activity at 1 uM by Kinome scan method relative to control
[3] = molecular target: Cyclin-dependent kinase 7 (Homo sapiens) (UniProt P50613); test: Inhibition of CDK7 (unknown origin) assessed as remaining activity at 1 uM by Kinome scan method relative to control
[4] = test system: Epidermal growth factor receptor (Homo sapiens), P00533 [UNDEFINED MUTATION]; test: Inhibition of EGFR E746-A750del mutant (unknown origin) assessed as remaining activity at 1 uM by Kinome scan method relative to control
[5] = test system: Epidermal growth factor receptor (Homo sapiens), P00533 [UNDEFINED MUTATION]; test: Inhibition of EGFR L747-T751del/Sins mutant (unknown origin) assessed as remaining activity at 1 uM by Kinome scan method relative to control
[6] = molecular target: Mitogen-activated protein kinase kinase kinase 11 (Homo sapiens) (UniProt Q16584); test: Inhibition of MLK3 (unknown origin) assessed as remaining activity at 1 uM by Kinome scan method relative to control
[7] = molecular target: Serine/threonine-protein kinase OSR1 (Homo sapiens) (UniProt O95747); test: Inhibition of OSR1 (unknown origin) assessed as remaining activity at 1 uM by Kinome scan method relative to control
[8] = molecular target: Serine/threonine-protein kinase SIK3 (Homo sapiens) (UniProt Q9Y2K2); test: Inhibition of QSK (unknown origin) assessed as remaining activity at 1 uM by Kinome scan method relative to control
[9] = molecular target: SRSF protein kinase 3 (Homo sapiens) (UniProt Q9UPE1); test: Inhibition of SRPK3 (unknown origin) assessed as remaining activity at 1 uM by Kinome scan method relative to control
[10] = molecular target: Activin receptor type-1-like (Homo sapiens) (UniProt P37023); test: Inhibition of human ACVRL1 assessed as residual activity at 1 uM using Casein as substrate in presence of 33P-ATP by ProQinase assay relative to control
[11] = molecular target: CDK3/Cyclin E (Homo sapiens) (UniProt P24864+Q00526); test: Inhibition of human CDK3/CyclinE1 assessed as residual activity at 1 uM using RBER-CHKtide as substrate in presence of 33P-ATP by ProQinase assay relative to control; assay type: protein-complex assay
[12] = molecular target: Beta-adrenergic receptor kinase 1 (Homo sapiens) (UniProt P25098); test: Inhibition of human GRK2 assessed as residual activity at 1 uM using casein as substrate in presence of 33P-ATP by ProQinase assay relative to control
[13] = molecular target: T1, Megakaryocyte-associated tyrosine-protein kinase (Homo sapiens) (UniProt P42679); test: Inhibition of human MATK assessed as residual activity at 1 uM using polyEy as substrate in presence of 33P-ATP by ProQinase assay relative to control
T1 sequence (whole entry): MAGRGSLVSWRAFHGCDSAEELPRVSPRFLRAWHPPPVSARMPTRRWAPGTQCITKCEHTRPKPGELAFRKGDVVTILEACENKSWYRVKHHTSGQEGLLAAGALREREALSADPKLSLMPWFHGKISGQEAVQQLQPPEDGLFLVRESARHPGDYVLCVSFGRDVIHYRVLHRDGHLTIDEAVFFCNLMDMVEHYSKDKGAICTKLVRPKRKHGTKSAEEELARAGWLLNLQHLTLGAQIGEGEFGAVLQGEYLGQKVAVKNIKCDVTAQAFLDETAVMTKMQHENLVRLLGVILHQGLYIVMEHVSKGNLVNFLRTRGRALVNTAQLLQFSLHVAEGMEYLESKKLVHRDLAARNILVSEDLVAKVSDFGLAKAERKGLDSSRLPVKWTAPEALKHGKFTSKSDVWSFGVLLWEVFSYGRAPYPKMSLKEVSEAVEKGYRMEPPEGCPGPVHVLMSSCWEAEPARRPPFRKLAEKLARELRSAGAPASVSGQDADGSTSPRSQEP

[14] = test system: Hepatocyte growth factor receptor (Homo sapiens), P08581 [Y1230A]; test: Inhibition of human MET Y1230A mutant assessed as residual activity at 1 uM using poly(Ala,Glu,Lys,Tyr)6:2:5:1 as substrate in presence of 33P-ATP by ProQinase assay relative to control
[15] = molecular target: Serine/threonine-protein kinase mTOR (Homo sapiens) (UniProt P42345); test: Inhibition of human mTOR assessed as residual activity at 1 uM using casein as substrate in presence of 33P-ATP by ProQinase assay relative to control
[16] = molecular target: T2, Muscle, skeletal receptor tyrosine-protein kinase (Homo sapiens) (UniProt O15146); test: Inhibition of human MUSK assessed as residual activity at 1 uM using Poly(Ala,Glu,Lys,Tyr)6:2:5:1 as substrate in presence of 33P-ATP by ProQinase assay relative to control
T2 sequence (whole entry): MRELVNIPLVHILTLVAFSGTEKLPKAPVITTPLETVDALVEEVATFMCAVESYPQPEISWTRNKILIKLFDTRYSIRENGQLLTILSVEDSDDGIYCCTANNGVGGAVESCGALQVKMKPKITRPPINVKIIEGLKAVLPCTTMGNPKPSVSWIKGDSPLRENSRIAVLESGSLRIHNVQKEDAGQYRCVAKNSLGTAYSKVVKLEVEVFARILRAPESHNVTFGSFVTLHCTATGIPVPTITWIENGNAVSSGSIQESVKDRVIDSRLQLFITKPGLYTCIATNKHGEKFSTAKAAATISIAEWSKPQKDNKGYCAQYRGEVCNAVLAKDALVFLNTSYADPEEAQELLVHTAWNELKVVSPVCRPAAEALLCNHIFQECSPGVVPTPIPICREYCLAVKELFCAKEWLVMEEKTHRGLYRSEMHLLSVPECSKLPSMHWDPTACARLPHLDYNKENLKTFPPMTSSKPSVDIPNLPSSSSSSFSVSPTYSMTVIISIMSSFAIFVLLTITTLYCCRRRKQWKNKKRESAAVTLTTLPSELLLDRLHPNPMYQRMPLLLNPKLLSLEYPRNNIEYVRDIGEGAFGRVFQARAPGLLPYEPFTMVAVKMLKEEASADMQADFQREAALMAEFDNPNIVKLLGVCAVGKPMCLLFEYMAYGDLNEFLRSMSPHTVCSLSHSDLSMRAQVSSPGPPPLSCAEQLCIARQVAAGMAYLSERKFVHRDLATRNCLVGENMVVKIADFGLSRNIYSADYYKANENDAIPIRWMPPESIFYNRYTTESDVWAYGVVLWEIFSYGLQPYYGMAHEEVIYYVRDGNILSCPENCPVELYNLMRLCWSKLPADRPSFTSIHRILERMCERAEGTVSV

[17] = molecular target: Serine/threonine-protein kinase Sgk3 (Homo sapiens) (UniProt Q96BR1); test: Inhibition of human SGK3 assessed as residual activity at 1 uM using RBER-GSK3(14-27) as substrate in presence of 33P-ATP by ProQinase assay relative to control
Chain of Serine/threonine-protein kinase Sgk3 (Homo sapiens) (Q96BR1 whole entry): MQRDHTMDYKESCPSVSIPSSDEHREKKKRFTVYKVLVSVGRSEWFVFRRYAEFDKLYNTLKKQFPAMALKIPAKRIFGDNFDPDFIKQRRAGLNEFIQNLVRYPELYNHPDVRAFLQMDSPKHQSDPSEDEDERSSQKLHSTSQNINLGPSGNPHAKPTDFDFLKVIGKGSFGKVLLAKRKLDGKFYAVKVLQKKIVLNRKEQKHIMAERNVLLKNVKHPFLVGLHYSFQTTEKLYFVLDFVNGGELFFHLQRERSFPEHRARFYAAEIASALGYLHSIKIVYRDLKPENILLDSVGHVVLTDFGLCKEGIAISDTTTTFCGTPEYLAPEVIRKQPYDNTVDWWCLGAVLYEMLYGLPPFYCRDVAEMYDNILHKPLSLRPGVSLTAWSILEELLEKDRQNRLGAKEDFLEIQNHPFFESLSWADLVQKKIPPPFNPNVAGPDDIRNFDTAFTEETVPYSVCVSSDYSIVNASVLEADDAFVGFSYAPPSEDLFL

Chain of Epidermal growth factor receptor (Homo sapiens), P00533 [UNDEFINED MUTATION] (P00533 whole entry, looked up, stated change not applied): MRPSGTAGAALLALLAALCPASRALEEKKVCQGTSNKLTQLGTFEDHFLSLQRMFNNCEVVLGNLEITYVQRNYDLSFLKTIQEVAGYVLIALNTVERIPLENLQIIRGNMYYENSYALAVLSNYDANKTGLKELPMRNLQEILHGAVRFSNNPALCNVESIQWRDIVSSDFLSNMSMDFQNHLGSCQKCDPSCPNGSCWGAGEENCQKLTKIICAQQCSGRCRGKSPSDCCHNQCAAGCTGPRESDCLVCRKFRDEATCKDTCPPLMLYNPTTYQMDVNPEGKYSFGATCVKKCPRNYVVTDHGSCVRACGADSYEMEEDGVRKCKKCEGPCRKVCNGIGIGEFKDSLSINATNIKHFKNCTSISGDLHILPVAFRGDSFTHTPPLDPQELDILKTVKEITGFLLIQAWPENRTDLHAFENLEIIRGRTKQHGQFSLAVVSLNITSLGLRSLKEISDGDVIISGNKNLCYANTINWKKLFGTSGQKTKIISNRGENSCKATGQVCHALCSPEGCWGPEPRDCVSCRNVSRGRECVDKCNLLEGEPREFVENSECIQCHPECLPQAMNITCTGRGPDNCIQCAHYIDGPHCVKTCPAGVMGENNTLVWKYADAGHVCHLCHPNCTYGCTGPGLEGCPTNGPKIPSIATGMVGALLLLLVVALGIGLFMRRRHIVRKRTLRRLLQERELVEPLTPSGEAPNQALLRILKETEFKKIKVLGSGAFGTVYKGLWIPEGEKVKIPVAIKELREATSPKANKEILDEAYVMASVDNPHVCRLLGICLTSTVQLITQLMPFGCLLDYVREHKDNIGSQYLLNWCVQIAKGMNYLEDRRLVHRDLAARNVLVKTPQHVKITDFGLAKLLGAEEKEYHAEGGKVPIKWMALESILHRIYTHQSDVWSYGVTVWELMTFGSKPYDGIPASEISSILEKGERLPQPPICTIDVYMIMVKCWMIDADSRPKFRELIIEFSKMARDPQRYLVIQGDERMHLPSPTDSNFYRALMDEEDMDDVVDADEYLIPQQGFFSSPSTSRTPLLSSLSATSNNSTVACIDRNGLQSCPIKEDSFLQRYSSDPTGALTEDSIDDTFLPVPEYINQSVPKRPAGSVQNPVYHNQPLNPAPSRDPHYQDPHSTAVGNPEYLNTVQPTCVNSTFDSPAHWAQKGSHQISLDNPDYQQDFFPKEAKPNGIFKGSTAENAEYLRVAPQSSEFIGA
Chain of CDK3/Cyclin E (Homo sapiens) (P24864 whole entry, looked up): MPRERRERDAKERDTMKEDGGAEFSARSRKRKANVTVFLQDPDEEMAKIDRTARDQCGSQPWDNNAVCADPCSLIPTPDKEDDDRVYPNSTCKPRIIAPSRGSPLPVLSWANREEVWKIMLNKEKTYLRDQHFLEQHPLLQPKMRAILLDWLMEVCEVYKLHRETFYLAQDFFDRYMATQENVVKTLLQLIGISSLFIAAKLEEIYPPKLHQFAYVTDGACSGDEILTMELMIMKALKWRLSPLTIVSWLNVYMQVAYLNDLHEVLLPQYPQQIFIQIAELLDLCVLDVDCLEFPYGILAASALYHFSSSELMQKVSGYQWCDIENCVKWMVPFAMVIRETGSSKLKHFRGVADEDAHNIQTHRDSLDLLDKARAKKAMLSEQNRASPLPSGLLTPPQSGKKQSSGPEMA
Chain of CDK3/Cyclin E (Homo sapiens) (Q00526 whole entry, looked up): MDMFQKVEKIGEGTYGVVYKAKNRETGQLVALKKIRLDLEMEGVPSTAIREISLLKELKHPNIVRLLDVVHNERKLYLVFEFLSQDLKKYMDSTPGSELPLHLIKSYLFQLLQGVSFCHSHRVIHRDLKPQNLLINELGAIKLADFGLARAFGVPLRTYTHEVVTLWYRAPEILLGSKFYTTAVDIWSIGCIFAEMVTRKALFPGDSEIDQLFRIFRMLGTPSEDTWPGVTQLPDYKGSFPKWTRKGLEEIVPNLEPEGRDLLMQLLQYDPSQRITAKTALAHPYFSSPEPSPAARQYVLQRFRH
Chain of Serine/threonine-protein kinase OSR1 (Homo sapiens) (O95747 2-527 limits assumed): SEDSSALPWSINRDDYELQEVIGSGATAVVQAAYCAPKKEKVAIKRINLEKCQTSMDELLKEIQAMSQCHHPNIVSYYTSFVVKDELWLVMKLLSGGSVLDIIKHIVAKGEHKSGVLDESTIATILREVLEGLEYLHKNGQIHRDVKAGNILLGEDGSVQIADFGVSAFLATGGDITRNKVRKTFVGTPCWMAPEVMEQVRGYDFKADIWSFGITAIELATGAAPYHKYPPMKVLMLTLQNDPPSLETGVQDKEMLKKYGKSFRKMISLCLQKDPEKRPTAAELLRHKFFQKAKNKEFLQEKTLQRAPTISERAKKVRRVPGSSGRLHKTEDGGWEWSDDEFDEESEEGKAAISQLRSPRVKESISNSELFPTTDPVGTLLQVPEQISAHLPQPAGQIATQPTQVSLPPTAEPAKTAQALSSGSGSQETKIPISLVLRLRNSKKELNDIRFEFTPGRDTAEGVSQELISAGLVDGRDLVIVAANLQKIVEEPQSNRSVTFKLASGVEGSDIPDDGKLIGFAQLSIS
Chain of Cyclin-dependent kinase 5 (Homo sapiens) (Q00535 whole entry, looked up): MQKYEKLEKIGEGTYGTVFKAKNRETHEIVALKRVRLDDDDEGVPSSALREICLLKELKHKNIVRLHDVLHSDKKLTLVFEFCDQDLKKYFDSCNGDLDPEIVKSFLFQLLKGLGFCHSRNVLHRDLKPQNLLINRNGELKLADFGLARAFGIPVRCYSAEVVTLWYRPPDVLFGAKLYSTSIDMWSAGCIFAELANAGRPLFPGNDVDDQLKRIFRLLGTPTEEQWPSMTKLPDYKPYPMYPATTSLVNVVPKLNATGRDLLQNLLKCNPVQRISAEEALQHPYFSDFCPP
Chain of Cyclin-dependent kinase 7 (Homo sapiens) (P50613 whole entry): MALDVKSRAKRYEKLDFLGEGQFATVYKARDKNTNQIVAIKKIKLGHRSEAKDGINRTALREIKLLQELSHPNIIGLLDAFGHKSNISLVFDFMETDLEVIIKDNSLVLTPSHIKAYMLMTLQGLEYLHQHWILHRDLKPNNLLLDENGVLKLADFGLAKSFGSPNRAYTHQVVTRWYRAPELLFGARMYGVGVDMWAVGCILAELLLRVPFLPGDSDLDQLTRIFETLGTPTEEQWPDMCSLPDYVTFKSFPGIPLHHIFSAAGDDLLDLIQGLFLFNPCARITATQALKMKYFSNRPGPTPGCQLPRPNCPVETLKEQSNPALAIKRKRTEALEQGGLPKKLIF
Chain of Activin receptor type-1-like (Homo sapiens) (P37023 whole entry): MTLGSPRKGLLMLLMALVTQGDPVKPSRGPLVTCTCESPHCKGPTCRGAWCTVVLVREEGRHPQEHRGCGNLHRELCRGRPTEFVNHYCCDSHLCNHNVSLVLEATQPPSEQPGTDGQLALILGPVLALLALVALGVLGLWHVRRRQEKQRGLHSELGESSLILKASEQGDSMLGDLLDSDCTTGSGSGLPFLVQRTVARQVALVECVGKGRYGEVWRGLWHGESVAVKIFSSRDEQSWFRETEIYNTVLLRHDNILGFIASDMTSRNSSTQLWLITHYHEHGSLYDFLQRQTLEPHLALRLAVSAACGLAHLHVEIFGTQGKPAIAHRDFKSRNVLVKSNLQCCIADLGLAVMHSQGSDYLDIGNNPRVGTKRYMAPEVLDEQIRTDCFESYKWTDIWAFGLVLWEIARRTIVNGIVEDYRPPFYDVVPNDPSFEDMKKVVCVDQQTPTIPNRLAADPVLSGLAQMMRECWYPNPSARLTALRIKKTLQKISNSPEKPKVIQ
Chain of Beta-adrenergic receptor kinase 1 (Homo sapiens) (P25098 whole entry): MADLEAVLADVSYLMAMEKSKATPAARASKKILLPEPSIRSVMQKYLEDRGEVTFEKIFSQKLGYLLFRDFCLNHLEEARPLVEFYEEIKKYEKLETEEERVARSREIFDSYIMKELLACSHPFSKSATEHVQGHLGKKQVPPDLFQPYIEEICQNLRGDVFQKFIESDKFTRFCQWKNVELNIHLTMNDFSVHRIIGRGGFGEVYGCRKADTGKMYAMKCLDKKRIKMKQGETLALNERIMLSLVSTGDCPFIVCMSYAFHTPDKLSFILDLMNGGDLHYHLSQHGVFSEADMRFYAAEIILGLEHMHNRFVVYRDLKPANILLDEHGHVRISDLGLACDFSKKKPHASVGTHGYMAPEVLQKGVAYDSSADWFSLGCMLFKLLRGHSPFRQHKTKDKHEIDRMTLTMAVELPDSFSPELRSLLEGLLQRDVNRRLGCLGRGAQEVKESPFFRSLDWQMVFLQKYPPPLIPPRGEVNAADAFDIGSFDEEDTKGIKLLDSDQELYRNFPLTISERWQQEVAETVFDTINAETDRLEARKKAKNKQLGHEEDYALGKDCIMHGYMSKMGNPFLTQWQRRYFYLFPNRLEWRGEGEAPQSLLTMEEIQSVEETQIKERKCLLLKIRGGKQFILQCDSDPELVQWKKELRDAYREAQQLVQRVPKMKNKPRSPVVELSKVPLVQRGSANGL

O=C1c2ccc(Nc3ccc(F)cc3F)cc2CCc2ccc(OC[C@H](O)CO)cc21 [Skepinone-L]
Activity [1]: 100%
Activity [2]: 100%
Activity [3]: 100%
Activity [4]: 72%
Activity [5]: 98%
Activity [6]: 96%
Activity [7]: 100%
Activity [8]: 100%
Activity [9]: 100%
Activity [10]: 105%
Activity [11]: 96%
Activity [12]: 83%
Activity [13]: 111%
Activity [14]: 91%
Activity [15]: 97%
Activity [16]: 106%
Activity [17]: 102%
